Patent US10479819B2 (priority 2014, dated 2019)
Read-outs that look alike come from different tables or passages of the source. Starred links: 1 amine or outer side, 2 acyl side, 3 side chain; linkers in the order of their positions; H or OH if unused. Non-standard residues stand in square brackets, D forms with d. Residues, ends and D or L forms follow the SMILES beside them. Groups on a side chain read outwards from the residue. *: point of attachment. C18 diacid = O=C(O)CCCCCCCCCCCCCCCCC(=O)*; γGlu = O=C(O)[C@H](CCC(=O)[*:2])N[*:1]; Palmitoyl = CCCCCCCCCCCCCCCC(=O)*; PEG2 = NCCOCCOCCC(=O)O; Aib = CC(C)(N)C(=O)O

Legend:
human GLP-1R = target: T1, human GLP-1R (Homo sapiens, UniProt P43220); assay: In vitro activity on GLP-1R, CRE-luciferase HEK-293 cells; format: cell-based; conditions: for GLP-1R/GCGR: ratio of EC50 GLP-1R to EC50 GCGR
T1 construct: expressed in transfected cells
Procedure, shortened: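 HEK-293 cells stably expressing human GLP-1R or human GCGR with CRE-luciferase reporter, 5000 cells/well in DMEM/10% FBS, exposed to compound. Luminescence read after luciferase reagent; EC50 taken from concentration-response curves.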

human GCGR = target: T2, human GCGR (Homo sapiens, UniProt P47871); assay: In vitro activity on GCGR, CRE-luciferase HEK-293 cells; format: cell-based
T2 construct: expressed in transfected cells
Procedure: 5000 of HEK-293 cells, which are used in CRE-luciferase system and express human GCGR or GLP-1R stably, were inoculated into 384 well plates according to […] DMEM/10% FBS media/well. […] After incubation, […] of luciferase reagent was added directly to each plate and mixed gently for 2 minutes. The plates were placed into an Elmer Perkin plate reader for reading. Concentration curve of the compound was made by drawing software Prism 5, and the EC50 value was calculated.

[1] = Pharmacokinetic analysis after IV or SC administration in male CD1 mice; conditions: for Tmax / half-life: iv
Procedure: Pharmacokinetic parameters of the drugs were calculated by methods of model dependence (for data obtained from IV) and model independence (data obtained from SC).

male C57B1/6J mice = assay: Oral glucose tolerance test in male C57B1/6J mice; format: in vivo; conditions: 250 μg/kg; for AUC of blood glucose in all four OGTT curve periods (0-480 min) compared with carrier (PBS): P<0.05; for effect on oral glucose tolerance: male C57B1/6J mice
DIO mice = assay: Body weight reduction in DIO (obese) mice; format: in vivo; conditions: 250 μg/kg SC daily, day 11 to day 30, DIO mice
Description: Forty 25-week-old DIO mice (Nanjing University model animal research center) were randomly divided into five groups (compound 4, 5, 6, 7, and normal saline group), 8 in each group, having no difference in the basis weight of each group.

T1 sequence (P43220 24-463): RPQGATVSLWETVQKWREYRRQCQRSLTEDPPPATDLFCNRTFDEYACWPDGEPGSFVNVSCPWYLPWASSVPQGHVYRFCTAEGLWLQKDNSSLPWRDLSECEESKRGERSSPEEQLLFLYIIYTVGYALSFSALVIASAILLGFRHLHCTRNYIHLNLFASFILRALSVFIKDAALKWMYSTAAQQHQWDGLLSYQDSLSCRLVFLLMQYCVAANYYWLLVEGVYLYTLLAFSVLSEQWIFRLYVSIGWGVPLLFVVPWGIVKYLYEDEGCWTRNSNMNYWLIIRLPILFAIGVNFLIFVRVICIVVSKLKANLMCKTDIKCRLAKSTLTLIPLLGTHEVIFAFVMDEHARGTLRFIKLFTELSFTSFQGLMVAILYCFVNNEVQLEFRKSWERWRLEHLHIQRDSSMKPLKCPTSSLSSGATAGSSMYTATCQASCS
T2 sequence (P47871 26-477): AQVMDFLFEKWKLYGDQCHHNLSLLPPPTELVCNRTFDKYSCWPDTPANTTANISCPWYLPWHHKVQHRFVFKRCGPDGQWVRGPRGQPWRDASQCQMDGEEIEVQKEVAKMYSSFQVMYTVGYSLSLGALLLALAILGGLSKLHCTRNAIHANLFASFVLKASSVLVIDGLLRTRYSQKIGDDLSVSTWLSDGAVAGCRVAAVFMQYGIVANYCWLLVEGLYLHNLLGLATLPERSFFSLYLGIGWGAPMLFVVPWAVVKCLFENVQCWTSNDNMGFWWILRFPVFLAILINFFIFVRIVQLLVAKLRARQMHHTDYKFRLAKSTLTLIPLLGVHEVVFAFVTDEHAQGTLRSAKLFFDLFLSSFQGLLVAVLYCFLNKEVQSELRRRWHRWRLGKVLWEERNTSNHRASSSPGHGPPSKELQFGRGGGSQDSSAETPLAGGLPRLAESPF

Row | Structure (SMILES) | GLP-1R/GCGR (human GLP-1R) | EC50 (human GLP-1R; read-out: GLP-1R (EC50)) [nM] | EC50 (human GCGR; read-out: GCGR (EC50)) [nM] | clinical adverse effect ([1]; mouse, in vivo) | Tmax ([1]; mouse, in vivo) [h] | half-life ([1]; mouse, in vivo) [h] | peak time ([1]; mouse, in vivo, sc) | AUC of blood glucose in all four OGTT curve periods (0-480 min) compared with carrier (PBS) (male C57B1/6J mice) | effect on oral glucose tolerance (male C57B1/6J mice) | weight loss (DIO mice) | body weight compared with normal saline group (DIO mice; P<0.05) | EC50 (human GLP-1R) [nM] | EC50 (human GCGR) [nM] | clinical adverse effect ([1]; IV or SC route, male CD1 mice)
1 | CCCCCCCCCCCCCCCC(=O)NCCOCCOCCC(=O)NCCOCCOCCC(=O)NCCCC[C@H](NC(=O)[C@H](CC(=O)O)NC(=O)[C@H](CO)NC(=O)[C@@H](NC(=O)[C@H](Cc1ccccc1)NC(=O)[C@@H](NC(=O)CNC(=O)[C@H](CCC(N)=O)NC(=O)[C@@H](CO)NC(=O)[C@@H](N)Cc1c[nH]cn1)[C@@H](C)O)[C@@H](C)O)C(=O)N[C@@H](CO)C(=O)N[C@@H](CCCCN)C(=O)N[C@@H](Cc1ccc(O)cc1)C(=O)N[C@@H](CC(C)C)C(=O)N[C@@H](CC(=O)O)C(=O)NC(C)(C)C(=O)N[C@@H](CCCNC(=N)N)C(=O)N[C@@H](CCCNC(=N)N)C(=O)N[C@@H](C)C(=O)N[C@@H](CCC(N)=O)C(=O)N[C@@H](CC(=O)O)C(=O)N[C@@H](Cc1ccccc1)C(=O)N[C@H](C(=O)N[C@@H](CCC(N)=O)C(=O)N[C@@H](Cc1c[nH]c2ccccc12)C(=O)N[C@@H](CC(C)C)C(=O)N[C@@H](CCSC)C(=O)N[C@@H](CC(N)=O)C(=O)N[C@H](C(=O)NCC(=O)NCC(=O)N1CCC[C@H]1C(=O)N[C@@H](CO)C(=O)N[C@@H](CO)C(=O)NCC(=O)N[C@@H](C)C(=O)N1CCC[C@H]1C(=O)N1CCC[C@H]1C(=O)N1CCC[C@H]1C(=O)N[C@@H](CO)C(N)=O)[C@@H](C)O)C(C)C [Compound 5] | 0.1 | 0.06 | 0.43 | no clinical adverse effect | ~12 | 4 to 6 | more than 12 hours | significantly decreased | significantly reduced the oral glucose tolerance | about 20% | significantly lower |  |  | 
2 | CCCCCCCCCCCCCCCC(=O)N[C@@H](CCC(=O)NCCOCCOCCC(=O)NCCOCCOCCC(=O)NCCCC[C@H](NC(=O)[C@H](CO)NC(=O)[C@H](Cc1ccc(O)cc1)NC(=O)[C@H](CC(=O)O)NC(=O)[C@H](CO)NC(=O)[C@@H](NC(=O)[C@H](Cc1ccccc1)NC(=O)[C@@H](NC(=O)CNC(=O)[C@H](CCC(N)=O)NC(=O)[C@@H](CO)NC(=O)[C@@H](N)Cc1c[nH]cn1)[C@@H](C)O)[C@@H](C)O)C(=O)N[C@@H](CCCCN)C(=O)N[C@@H](CC(C)C)C(=O)N[C@@H](CC(=O)O)C(=O)NC(C)(C)C(=O)N[C@@H](CCCNC(=N)N)C(=O)N[C@@H](CCCNC(=N)N)C(=O)N[C@@H](C)C(=O)N[C@@H](CCC(N)=O)C(=O)N[C@@H](CC(=O)O)C(=O)N[C@@H](Cc1ccccc1)C(=O)N[C@H](C(=O)N[C@@H](CCC(N)=O)C(=O)N[C@@H](Cc1c[nH]c2ccccc12)C(=O)N[C@@H](CC(C)C)C(=O)N[C@@H](CCSC)C(=O)N[C@@H](CC(N)=O)C(=O)N[C@H](C(=O)NCC(=O)NCC(=O)N1CCC[C@H]1C(=O)N[C@@H](CO)C(=O)N[C@@H](CO)C(=O)NCC(=O)N[C@@H](C)C(=O)N1CCC[C@H]1C(=O)N1CCC[C@H]1C(=O)N1CCC[C@H]1C(=O)N[C@@H](CO)C(N)=O)[C@@H](C)O)C(C)C)C(=O)O [Compound 17] | 1.2 |  | 0.58 |  |  |  |  |  |  |  |  |  |  | 
3 | CSCC[C@H](NC(=O)[C@H](CC(C)C)NC(=O)[C@H](Cc1c[nH]c2ccccc12)NC(=O)[C@H](CCC(N)=O)NC(=O)[C@@H](NC(=O)[C@H](Cc1ccccc1)NC(=O)[C@H](CC(=O)O)NC(=O)[C@H](CCC(N)=O)NC(=O)[C@H](C)NC(=O)[C@H](CCCNC(=N)N)NC(=O)[C@H](CCCNC(=N)N)NC(=O)C(C)(C)NC(=O)[C@H](CC(=O)O)NC(=O)[C@H](CC(C)C)NC(=O)[C@H](CCCCN)NC(=O)[C@H](CCCCNC(=O)CCOCCOCCNC(=O)CCOCCOCCNC(=O)CC[C@H](NC(=O)CCCCCCCCCCCCCCCCC(=O)O)C(=O)O)NC(=O)[C@H](CO)NC(=O)[C@H](Cc1ccc(O)cc1)NC(=O)[C@H](CC(=O)O)NC(=O)[C@H](CO)NC(=O)[C@@H](NC(=O)[C@H](Cc1ccccc1)NC(=O)[C@@H](NC(=O)CNC(=O)[C@H](CCC(N)=O)NC(=O)[C@@H](CO)NC(=O)[C@@H](N)Cc1c[nH]cn1)[C@@H](C)O)[C@@H](C)O)C(C)C)C(=O)N[C@@H](CC(N)=O)C(=O)N[C@H](C(=O)NCC(=O)NCC(=O)N1CCC[C@H]1C(=O)N[C@@H](CO)C(=O)N[C@@H](CO)C(=O)NCC(=O)N[C@@H](C)C(=O)N1CCC[C@H]1C(=O)N1CCC[C@H]1C(=O)N1CCC[C@H]1C(=O)N[C@@H](CO)C(N)=O)[C@@H](C)O [Compound 18] (H-H[dS]QGTFTSDYSK([PEG2-PEG2-γGlu-C18 diacid])KLD[Aib]RRAQDFVQWLMNTGGPSSGAPPPS-NH2; N-terminus assumed) | 4.2 |  | 0.18 |  |  |  |  |  |  |  |  |  |  | 
4 | CCCCCCCCCCCCCCCC(=O)NCCOCCOCCC(=O)NCCOCCOCCC(=O)NCCCC[C@H](NC(=O)[C@H](C)NC(=O)[C@H](C)NC(=O)[C@H](CCCCN)NC(=O)[C@H](CCC(=O)O)NC(=O)[C@H](CC(=O)O)NC(=O)[C@H](CC(C)C)NC(=O)[C@H](Cc1ccc(O)cc1)NC(=O)[C@H](CCCCN)NC(=O)[C@H](CO)NC(=O)[C@H](Cc1ccc(O)cc1)NC(=O)[C@H](CC(=O)O)NC(=O)[C@H](CO)NC(=O)[C@@H](NC(=O)[C@H](Cc1ccccc1)NC(=O)[C@@H](NC(=O)CNC(=O)[C@H](CCC(N)=O)NC(=O)[C@@H](CO)NC(=O)[C@@H](N)Cc1c[nH]cn1)[C@@H](C)O)[C@@H](C)O)C(=O)N[C@@H](CCC(=O)O)C(=O)N[C@@H](Cc1ccccc1)C(=O)N[C@H](C(=O)N[C@@H](CCC(=O)O)C(=O)N[C@@H](Cc1c[nH]c2ccccc12)C(=O)N[C@@H](CC(C)C)C(=O)N[C@@H](CC(C)C)C(=O)N[C@@H](CC(N)=O)C(=O)NCC(=O)NCC(=O)N1CCC[C@H]1C(=O)N[C@@H](CO)C(=O)N[C@@H](CO)C(=O)NCC(=O)N[C@@H](C)C(=O)N1CCC[C@H]1C(=O)N1CCC[C@H]1C(=O)N1CCC[C@H]1C(=O)N[C@@H](CO)C(N)=O)[C@@H](C)CC [Compound 23] (H-H[dS]QGTFTSDYSKYLDEKAAK([PEG2-PEG2-Palmitoyl])EFIEWLLNGGPSSGAPPPS-NH2) | 0.30 |  |  |  | ~12 | 4 to 6 |  | significantly decreased | significantly reduced the oral glucose tolerance |  |  | 0.13 | 0.43 | no clinical adverse effect
5 | CCCCCCCCCCCCCCCC(=O)N[C@@H](CCC(=O)NCCOCCOCCC(=O)NCCOCCOCCC(=O)NCCCC[C@H](NC(=O)[C@H](C)NC(=O)[C@H](C)NC(=O)[C@H](CCCCN)NC(=O)[C@H](CCC(=O)O)NC(=O)[C@H](CC(=O)O)NC(=O)[C@H](CC(C)C)NC(=O)[C@H](Cc1ccc(O)cc1)NC(=O)[C@H](CCCCN)NC(=O)[C@H](CO)NC(=O)[C@H](Cc1ccc(O)cc1)NC(=O)[C@H](CC(=O)O)NC(=O)[C@H](CO)NC(=O)[C@@H](NC(=O)[C@H](Cc1ccccc1)NC(=O)[C@@H](NC(=O)CNC(=O)[C@H](CCC(N)=O)NC(=O)[C@@H](CO)NC(=O)[C@@H](N)Cc1c[nH]cn1)[C@@H](C)O)[C@@H](C)O)C(=O)N[C@@H](CCC(=O)O)C(=O)N[C@@H](Cc1ccccc1)C(=O)N[C@H](C(=O)N[C@@H](CCC(=O)O)C(=O)N[C@@H](Cc1c[nH]c2ccccc12)C(=O)N[C@@H](CC(C)C)C(=O)N[C@@H](CC(C)C)C(=O)N[C@@H](CC(N)=O)C(=O)NCC(=O)NCC(=O)N1CCC[C@H]1C(=O)N[C@@H](CO)C(=O)N[C@@H](CO)C(=O)NCC(=O)N[C@@H](C)C(=O)N1CCC[C@H]1C(=O)N1CCC[C@H]1C(=O)N1CCC[C@H]1C(=O)N[C@@H](CO)C(N)=O)[C@@H](C)CC)C(=O)O [Compound 24] (H-H[dS]QGTFTSDYSKYLDEKAAK([PEG2-PEG2-γGlu-Palmitoyl])EFIEWLLNGGPSSGAPPPS-NH2) | 0.28 |  |  |  | ~12 | 4 to 6 |  | significantly decreased | significantly reduced the oral glucose tolerance |  |  |  | 0.58 | no clinical adverse effect
